Assay results taken from patent US20170042870A1, “TARGETED NANOPARTICLE COMPOSITIONS AND METHODS OF THEIR USE TO TREAT OBESITY” (priority 2014, published 2017).

Assays:
[1] = Body weight gain and food intake in DIO mice; type: in vivo, C57Bl/6 mice; conditions: 25 days post treatment, vs non-treated obese mice
From the text: All animal studies were approved by the Committee on Animal Care, Massachusetts Institute of Technology. 6-week-old male wild-type mice and 10-week-old male diet-induced obese mice, of the C57Bl/6 strain, were used in current studies. High-fat-diet (TD-06414, 60/Fat) was purchased from Harlan Laboratories, and was used to induce and maintain obesity in C57Bl/6 mice.
Standard diet fed or high-fat-diet fed C57Bl/6 mice were intravenous injected with either NP constructs or free drug (rosiglitazone or 16,16-dimethyl-PGE2) at the drug dose of 80 mg/kg, every second day. Free Rosi was dissolved in DMSO followed by dilution in saline.
The high-fat-diet induced obese model was used to assess the possible impact of the two peptide-NP-Rosi on body weight, tissue histology, and molecular expression profiles. There was no difference in body weight gain between the mice treated with Rosi (in solution and non-targeted NP forms) and non-treated obese mice (FIGS. 5A and B).

[2] = test system: stromal vascular fragments (SVF) from WAT; test: Proliferation and cellular toxicity of SVF; type: cell-based, mice; conditions: in vitro
Method: (§1) WAT was dissected and extensively washed with Hank's Balanced Salt Solution (HBSS, Invitrogen). Tissues were cut into small pieces using a surgical scissor, and digested with 0.1% collagenase A in HBSS and 1% bovine serum albumin (SigmaAldrich) for 30 minutes at 37 C with gentle shaking. The digested tissues were suspended in Dulbecco's modified Eagle's medium containing 10% fetal bovine serum, and then passed through a 100 μm cell strainer (BD Falcon) to remove debris. Subsequently, cell suspension was centrifuged for 10 minutes at 300×g. 3. After removal of the floating cell layer and supernatant, the cell pellet was resuspended in 10 ml of HBSS, and then filtered through a 40 μm cell strainer (BD Falcon). The filtered cell suspension was layered on top of a Histopaque-1077 solution (10 ml) in a 50 ml tube, and then centrifuged at 400 g for 30 min at room temperature. The SVF cell layer at the gradient interface was collected and washed with HBSS. Cell counts and viability assessment were performed. Primary SVF or sorted cells were maintained in DMEM plus 10% FCS, 1% penicillin/streptomycin, and 10 ng/ml murine bFGF (R&D Systems).
(§2) Angiogenic vessels usually express high levels of integrins, particularly αv and β3 subunits. […]

[3] = test system: stromal vascular fragments (SVF) from WAT; test: qRT-PCR of integrin expression in SVF treated in vitro; type: cell-based, mice; conditions: Rosi 1 μM
Method: as §1, §2

[4] = Serological parameters in fasted DIO mice; type: in vivo, C57Bl/6 mice; conditions: 25 days
Method: Serum levels of free fatty acid, glucose, triglycerides and cholesterol contents from fasted obese mice were determined by standard kits from Cayman Chemical Co. (Ann Arbor, Mich.). Serum insulin from fasted obese mice was determined by ELISA method according to manufacturer's protocol (Millipore, Billerica, Mass.).
Serum was collected from DIO mice that were fasted for five hours following 25 days of treatments, and analyzed for levels of serological parameters.

CD31+ SVF = test: Integrinαv antibody staining of CD31-sorted SVF; type: cell-based, mice; conditions: in vitro
Method: Angiogenic vessels usually express high levels of integrins, particularly αv and β3 subunits. To evaluate whether Rosi-loaded NPs can effectively induce expression of integrins on vascular cells, the stromal vascular fragments (SVF) were isolated from WAT, followed by treatment with Rosi (1 μM) in either solution or non-targeted NP form. CD31+ SVF was sorted and stained with Integrinαv antibody, Isolectin B4 and DAPI. C57Bl/6 mice were treated with Rosi, NP-Rosi, iRGD-NP-Rosi or P3-NP-Rosi for two weeks (n=3). IngWAT, epiWAT and livers were dissected and representative samples were imaged under IVIS imaging system. Inguinal WAT and epididymal WAT were dissected and representative samples were photographed.
It should also be noted that no evidence of cellular toxicity was observed under all the conditions. SVFs were sorted with an endothelial marker CD31, and stained cells with an Integrinαv antibody.

Structure (SMILES): CN(CCOc1ccc(CC2SC(=O)NC2=O)cc1)c1ccccn1 (racemic) [Rosi, (RS)-5-[4-(2-[methyl(pyridin-2-yl)amino]ethoxy)benzyl]thiazolidine-2,4-dione]
- body weight gain [1]: no difference
- proliferation of SVF [2]: stimulated the proliferation of SVF
- expression level of Integrinαv on SVF (qRT-PCR) [3]: elevated the expression levels of Integrinαv
- reduction of serum insulin [4]: 3 folds
- Integrinαv on CD31-sorted SVF (antibody staining) (CD31+ SVF): upregulated
